Reference: patent publication US11554133B2, “Bile acid synthesis promoter, composition for promoting bile acid synthesis and food composition for promoting bile acid synthesis” (KRACIE HOLDINGS, LTD., priority 2017, dated 2023)

Assays:
[1] = system: FXR of the liver; test: Liver FXR mRNA expression by qPCR; format: in vivo; details: db/db mice, 0.2% arctigenin diet nine weeks, qPCR vs 18S rRNA, Student's t-test
Protocol: (§1) Using 5-week-old male db/db mice (BKS.Cg−+Leprdb/+Leprdb/Jcl, purchased from CLEA Japan, Inc.) that were leptin receptor-deficient model, the experiments were started after one-week preliminary rearing. The animals were reared under the environment of 23.0±5° C. of temperature, 50.0±10% of humidity and 12 hours of light-dark cycle. The animal experiments were approved by animal care and use committee of Keio University and carried out based on animal experiment rules of Keio University.
(§2) After preliminary rearing, mice were divided into two groups of (a) control group and (b) arctigenin administrated group (AG group) (each group n=8), and made AG group intake purified diet combined with arctigenin (>98.0%) 0.2% and purified diet (AIN-93G) for control group freely for nine weeks. After administration, 18-hour fasting was performed, and blood specimens were collected from abdominal vena cava under anesthesia, and the liver and the small intestine were sampled.
(§3) After having performed extraction of total RNA from the obtained organs and cDNA synthesis on each group, the expression level of Cyp8b1, SHP, FXR and FGF4R of the liver which are the liver cholesterol metabolism-related genes and small intestinal FGF15 and SHP were compared by qPCR. As control, 18S rRNA was used. […]

[2] = system: bile acid in feces; test: Measurement of the amount of bile acid in feces (UPLC-MS/MS) of db/db mice fed arctigenin diet; format: in vivo; details: 0.2% arctigenin in purified diet for nine weeks, pooled feces at end of administration
Protocol: as §1, §2
Feces were collected from the rearing cage of each group at the end of the administration period, and the amount of bile acid in feces was measured. 10 mg of dry powder of pooled feces was suspended in 0.2 mL of 90% ethanol and incubated at 65° C. for 1 hour, and the supernatant after centrifugation and the washing of the precipitates were collected together. […]

[3] = system: total cholesterol in the liver; test: Measurement of total cholesterol in liver of db/db mice fed arctigenin diet; format: in vivo; details: 0.2% arctigenin in purified diet for nine weeks, liver lipid extract
Protocol: Using 5-week-old male db/db mice (BKS.Cg−+Leprdb/+Leprdb/Jcl, purchased from CLEA Japan, Inc.) that were leptin receptor-deficient model, the experiments were started after one-week preliminary rearing. The animals were reared under the environment of 23.0±5° C. of temperature, 50.0±10% of humidity and 12 hours of light-dark cycle. The animal experiments were approved by animal care and use committee of Keio University and carried out based on animal experiment rules of Keio University. After preliminary rearing, mice were divided into two groups of (a) control group and (b) arctigenin administrated group (AG group) (each group n=8), and made AG group intake purified diet combined with arctigenin (>98.0%) 0.2% and purified diet (AIN-93G) for control group freely for nine weeks. After administration, 18-hour fasting was performed, and blood specimens were collected from abdominal vena cava under anesthesia, and the liver and the small intestine were sampled. Homogenate the liver obtained from each group and extracted total lipid using a lipid extraction kit (Lipid Extraction Kit (Chloroform-Free), Cell Biolabs, Inc.). A total cholesterol level was measured from lipid extract using cholesterol E-test Wako (Wako Pure Chemical Corporation). FIG. 2 is a graph showing the amount of total cholesterol in the liver (mg/dL) in control group and AG group. […]

[4] = system: SHP of the liver; test: Liver SHP mRNA expression by qPCR; format: in vivo; details: db/db mice, 0.2% arctigenin diet nine weeks, qPCR vs 18S rRNA, Student's t-test
Protocol: as §1, §2, §3

[5] = general statement, no test described; cited from earlier work
[6] = system: Cyp8b1 of the liver; test: Liver Cyp8b1 mRNA expression by qPCR; format: in vivo; details: db/db mice, 0.2% arctigenin diet nine weeks, qPCR vs 18S rRNA, Student's t-test
Protocol: as §1, §2, §3

[7] = system: FGF4R of the liver; test: Liver FGF4R mRNA expression by qPCR; format: in vivo; details: db/db mice, 0.2% arctigenin diet nine weeks, qPCR vs 18S rRNA, Student's t-test
Protocol: as §1, §2, §3

[8] = system: small intestinal SHP; test: Small intestinal SHP mRNA expression by qPCR; format: in vivo; details: db/db mice, 0.2% arctigenin diet nine weeks, qPCR vs 18S rRNA
Protocol: as §1, §2, §3

[9] = system: small intestinal FGF15; test: Small intestinal FGF15 mRNA expression by qPCR; format: in vivo; details: db/db mice, 0.2% arctigenin diet nine weeks, qPCR vs 18S rRNA
Protocol: as §1, §2, §3

COc1cc(C[C@H]2C(=O)OC[C@@H]2Cc2ccc(OC)c(OC)c2)ccc1O [arctigenin]
relative mRNA expression level of FXR of the liver in comparison with control group [1]: significantly low
amount of total bile acid in feces in comparison with control group [2]: large amount
amount of total cholesterol in the liver versus control group [3]: little amount
relative mRNA expression level of SHP of the liver in comparison with control group [4]: significantly low
solubility in water [5]: water-insoluble
relative mRNA expression level of Cyp8b1 of the liver in comparison with control group [6]: significantly high
relative mRNA expression level of FGF4R of the liver in comparison with control group [7]: significantly low
relative mRNA expression level of small intestinal SHP in comparison with control group [8]: low
relative mRNA expression level of small intestinal FGF15 in comparison with control group [9]: low
